From US20260042764A1, “COMPOSITIONS AND METHODS FOR INHIBITION OF KRAS” (TheRas, Inc., priority 2022, published 2026) come the findings set out here.

pIC50: −log10 of the molar value.

Test [1] concerns the target T1, Avi-KRAS WT (1-169) GppNHp/RAF1 RBD-3xFLAG (52-151) (Homo sapiens, UniProt P01116).
T1 construct: Avi-KRAS WT (1-169)
Description: Raf1-KRAS WT-GppNHP disruption HTRF assay (Biological Example 1). In kind it is binding. In outline:
(§1)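 Using HTRF, the loss of KRAS–effector RAF1 complex was quantified in 50 mM Tris pH 7.5 buffer with 100 mM NaCl and 0.1% BSA. The protein step and reagent step ran 1 h each at room temperature. Activity normalized with DMSO taken as 100%.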
Background: Time-resolved FRET reads energy transfer from a long-lived donor to a nearby acceptor.

The target of test [2] is T2, Avi-KRAS G12V (1-169) GppNHp/RAF1 RBD-3xFLAG (52-151) (Homo sapiens, UniProt P01116, G12V).
T2 construct: Avi-KRAS G12V (1-169)
T2 sequence (P01116 1-169 isoform P01116-2 G12V): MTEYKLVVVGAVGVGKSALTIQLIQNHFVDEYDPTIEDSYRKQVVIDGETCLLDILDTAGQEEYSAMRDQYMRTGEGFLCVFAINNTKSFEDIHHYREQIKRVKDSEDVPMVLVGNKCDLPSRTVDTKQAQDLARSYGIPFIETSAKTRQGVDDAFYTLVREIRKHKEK
Description: Raf1-KRAS G12V-GppNHP disruption HTRF assay (Biological Example 1). It counts as binding. The gist of the method: as §1

The target in test [3] is T3, Avi-KRAS G12D (1-169) GppNHp/RAF1 RBD-3xFLAG (52-151) (Homo sapiens, UniProt P01116, G12D).
T3 construct: Avi-KRAS G12D (1-169)
T3 sequence (P01116 1-169 isoform P01116-2 G12D): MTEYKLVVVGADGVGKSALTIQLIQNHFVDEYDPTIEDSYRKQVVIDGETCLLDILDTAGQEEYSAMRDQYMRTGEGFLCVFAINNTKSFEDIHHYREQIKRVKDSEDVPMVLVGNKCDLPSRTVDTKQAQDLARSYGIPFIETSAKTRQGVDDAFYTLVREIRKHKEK
In words: Raf1-KRAS G12D-GppNHP disruption HTRF assay (Biological Example 1). It counts as binding. In outline:
as §1

In a further test the test system is SW620 cells (KRAS G12V). In words: Cell-based pERK HTRF assay in SW620 cell (Biological Example 4). Conditions: pERK HTRF. The gist of the method:
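In SW620 cells grown in RPMI with 10% FBS, a 4 h compound treatment (0.25% DMSO, 9-point curve from 1 μM) preceded lysis. Phospho-ERK levels were then read by time-resolved FRET at 615 nm emission.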

Test [4] has as its target T4, Avi-KRAS G12R (1-169) GppNHp/RAF1 RBD-3xFLAG (52-151) (Homo sapiens, UniProt P01116, G12R).
T4 construct: Avi-KRAS G12R (1-169)
In words: Raf1-KRAS G12R-GppNHP disruption HTRF assay (Biological Example 1). In kind it is binding. In outline:
as §1

The mark [5] stands for this setting: Homo sapiens, SW-620, SW620 (KRAS G12V) cells.
[6] abbreviates: KRAS WT, GppNHp-loaded, Table 11.
The mark [7] stands for this setting: KRAS G12V, GppNHp-loaded, Table 11.
Setting [8] is: KRAS G12D, GppNHp-loaded, Table 11.
Setting [9] is: KRAS G12R, GppNHp-loaded, Table 11.
The mark [10] stands for this setting: KRAS WT, GppNHp-loaded, class symbols.
[11] abbreviates: KRAS G12V, GppNHp-loaded, class symbols.
[12] abbreviates: KRAS G12D, GppNHp-loaded, class symbols.
[13] abbreviates: KRAS G12R, GppNHp-loaded, class symbols.

T1 sequence (P01116 1-169 isoform P01116-2): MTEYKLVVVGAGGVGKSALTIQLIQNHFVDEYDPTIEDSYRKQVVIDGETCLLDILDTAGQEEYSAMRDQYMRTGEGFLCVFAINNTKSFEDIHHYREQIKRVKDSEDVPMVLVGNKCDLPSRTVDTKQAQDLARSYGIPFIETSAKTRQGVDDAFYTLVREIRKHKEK
T4 sequence (P01116 1-169 isoform P01116-2 G12R): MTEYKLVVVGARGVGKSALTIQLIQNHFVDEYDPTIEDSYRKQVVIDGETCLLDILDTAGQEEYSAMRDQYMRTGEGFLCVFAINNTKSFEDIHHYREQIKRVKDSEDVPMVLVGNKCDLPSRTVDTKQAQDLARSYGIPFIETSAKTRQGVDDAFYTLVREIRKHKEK

As usually defined, the pIC50 is the negative decadic logarithm of the IC50, by convention in mol/L. A higher pIC50 goes with a small IC50. With `CCN(c1nc(OC[C@@]23CCCN2C[C@H](F)C3)nc2c(F)c(-c3ccc(F)c4sc(N)c(C#N)c34)c(Cl)cc12)[C@@H]1CCN(C(C)=O)[C@@H]1C` [Compound 323], the pIC50 in test [1] (KRAS WT-GppNHp/RAF1 RBD HTRF) was 6.00 to 7.00; in test [2] (KRAS G12V-GppNHp/RAF1 RBD HTRF) it was 6.00 to 7.00; in test [3] (KRAS G12D-GppNHp/RAF1 RBD HTRF), 6.00 to 7.00; in the test with SW620 cells (KRAS G12V) (setting [5]), more than 7.00; in test [4] (KRAS G12R-GppNHp/RAF1 RBD HTRF) it was 6.00 to 7.00.
As to `C[C@@H]1[C@H](N(C)c2nc(OC[C@@]34CCCN3C[C@H](F)C4)nc3c(F)c(-c4ccc(F)c5sc(N)c(C#N)c45)c(C(F)(F)F)cc23)CC(=O)N1C` [Compound 440], the negative-log IC50 (pIC50) in test [1] (KRAS WT-GppNHp/RAF1 RBD HTRF) is 6.00 to 7.00; in test [2] (KRAS G12V-GppNHp/RAF1 RBD HTRF) it was 6.00 to 7.00; in test [3] (KRAS G12D-GppNHp/RAF1 RBD HTRF), 6.00 to 7.00; in the test on SW620 cells (KRAS G12V) (setting [5]), more than 7.00; in test [4] (KRAS G12R-GppNHp/RAF1 RBD HTRF), 6.00 to 7.00.
As for `N#Cc1c(N)sc2c(F)ccc(-c3c(C(F)(F)F)cc4c(N5CC6CC5CO6)nc(OC[C@@]56CCCN5C[C@H](F)C6)nc4c3F)c12` (some centres unmarked) [Compound 147], the pIC50 is 6.00 to 7.00 in test [1] (setting [6]); 6.00 to 7.00 in test [2] (setting [7]); 6.00 to 7.00 in test [3] (setting [8]); more than 7.00 in the test with SW620 cells (KRAS G12V) (setting [5]); 6.00 to 7.00 in test [4] (setting [9]).
Consider `CCN(c1nc(OC[C@@]23CCCN2C[C@H](F)C3)nc2c(F)c(-c3ccc(F)c4sc(N)c(C#N)c34)c(C(F)(F)F)cc12)[C@H]1CCN(C(=O)c2ncco2)C1` (atropisomer, axis not shown) [Compound 584], for which the pIC50 in test [1] (setting [10]) is more than 7.00; in test [2] (setting [11]) it was more than 7.00; in test [3] (setting [12]), more than 7.00; with SW620 cells (KRAS G12V) (Homo sapiens, SW-620, SW620 (KRAS G12V) cells, class symbols), more than 7.00; in test [4] (setting [13]), more than 7.00.
Turning to `CCN(c1nc(OC[C@@]23CCCN2C[C@H](F)C3)nc2c(F)c(-c3ccc(F)c4sc(N)c(C#N)c34)c(Cl)cc12)[C@@H]1CCN(C(=O)C2CC2)[C@@H]1C` [Compound 337], the pIC50 is 6.00 to 7.00 in test [1] (KRAS WT-GppNHp/RAF1 RBD HTRF); 6.00 to 7.00 in test [2] (KRAS G12V-GppNHp/RAF1 RBD HTRF); 6.00 to 7.00 in test [3] (KRAS G12D-GppNHp/RAF1 RBD HTRF); more than 7.00 with SW620 cells (KRAS G12V) (setting [5]); 6.00 to 7.00 in test [4] (KRAS G12R-GppNHp/RAF1 RBD HTRF).
Regarding `CCC(=O)N1CC[C@@H](N(C)c2nc(OC[C@@]34CCCN3C[C@H](F)C4)nc3c(F)c(-c4ccc(F)c5sc(N)c(C#N)c45)c(C(F)(F)F)cc23)[C@H]1C` [Compound 260], the pIC50 in test [1] (setting [6]) was more than 7.00; in test [2] (setting [7]) it was 6.00 to 7.00; in test [3] (setting [8]), more than 7.00; in the test with SW620 cells (KRAS G12V) (setting [5]), more than 7.00; in test [4] (setting [9]), more than 7.00.
As to `CC(=O)N1CC[C@@H](N(C)c2nc(OC[C@@]34CCCN3C[C@H](F)C4)nc3c(F)c(-c4ccc(F)c5sc(N)c(C#N)c45)c(Cl)cc23)[C@H]1C` [Compound 398], the negative-log IC50 (pIC50) in test [1] (KRAS WT-GppNHp/RAF1 RBD HTRF) is 6.00 to 7.00; in test [2] (KRAS G12V-GppNHp/RAF1 RBD HTRF), 6.00 to 7.00; in test [3] (KRAS G12D-GppNHp/RAF1 RBD HTRF), 6.00 to 7.00; with SW620 cells (KRAS G12V) (setting [5]), more than 7.00; in test [4] (KRAS G12R-GppNHp/RAF1 RBD HTRF), 6.00 to 7.00.
Take `CCC(=O)N1C[C@@H](N(CC)c2nc(OC[C@@]34CCCN3C[C@H](F)C4)nc3c(F)c(-c4ccc(F)c5sc(N)c(C#N)c45)c(C(F)(F)F)cc23)C[C@H]1C` [Compound 442]: the negative logarithm of the IC50 (pIC50) in test [1] (KRAS WT-GppNHp/RAF1 RBD HTRF) is 6.00 to 7.00; in test [2] (KRAS G12V-GppNHp/RAF1 RBD HTRF) it was 6.00 to 7.00; in test [3] (KRAS G12D-GppNHp/RAF1 RBD HTRF), 6.00 to 7.00; in the test with SW620 cells (KRAS G12V) (setting [5]), more than 7.00; in test [4] (KRAS G12R-GppNHp/RAF1 RBD HTRF) it was 6.00 to 7.00.
On to `CCN(c1nc(OCC23CCCN2CC(F)C3)nc2c(F)c(-c3ccc(F)c4sc(N)c(C#N)c34)c(C(F)(F)F)cc12)C1CC(C)N(C(=O)N2CC(F)C2)C1` (centres unmarked) [Compound 759], for which the pIC50 in test [1] (setting [10]) was more than 7.00; in test [2] (setting [11]) it was more than 7.00; in test [3] (setting [12]), more than 7.00; with SW620 cells (KRAS G12V) (SW620 (KRAS G12V) cells, class symbols), more than 7.00; in test [4] (setting [13]), more than 7.00.
In the case of `N#Cc1c(N)sc2c(F)ccc(-c3c(C(F)(F)F)cc4c(N5CCC[C@@H](O)C5)nc(OC[C@@]56CCCN5C[C@H](F)C6)nc4c3F)c12` [Compound 234], the pIC50 is 6.00 to 7.00 in test [1] (setting [6]); 6.00 to 7.00 in test [2] (setting [7]); 6.00 to 7.00 in test [3] (setting [8]); more than 7.00 in the test with SW620 cells (KRAS G12V) (setting [5]); 6.00 to 7.00 in test [4] (setting [9]).
